Reference: PubChem BioAssay (NCI)
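Cultured in 96-well plates, cells were exposed to test compound for 48 hours across five concentrations. At the GI50, growth is halved. TGI: total growth inhibition.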

Key:
Test in all cases: NCI anticancer screen, dose series, 48 h
[1] = test system: SK-MEL-2 melanoma
[2] = test system: LOX IMVI melanoma
[3] = test system: RPMI-8226 leukemia
[4] = test system: HS 578T breast
[5] = test system: T-47D breast
[6] = test system: HT29 colon
[7] = test system: SK-OV-3 ovarian
[8] = test system: NCI-H460 lung

SMILES	GI50 [1] [µM]	TGI [1] [µM]	GI50 [2] [µM]	TGI [2] [µM]	GI50 [3] [µM]	TGI [3] [µM]	GI50 [4] [µM]	TGI [4] [µM]	GI50 [5] [µM]	TGI [5] [µM]	GI50 [6] [µM]	TGI [6] [µM]	GI50 [7] [µM]	TGI [7] [µM]	GI50 [8] [µM]	TGI [8] [µM]
N#Cc1nc(-c2ccccc2)oc1S(=O)(=O)N1CCOCC1	12.7	29.8	1.46	2.91	2.58	7.89	16.3	50	1.78	3.84	4.82	25.4	56.2	> 100	17.3	37.2
O=C(/C=C\c1ccnc2ccccc12)c1ccc([N+](=O)[O-])cc1	> 100	> 100	1.83	3.75	1.87	4.6	27.3	> 96	4.19	> 66.4	2.36	5.37	> 100	> 100	> 68.1	> 100
COC(=O)CCC1=C(C)c2cc3[n-]c(cc4nc(cc5[n-]c(cc1n2)c(CCC(=O)OC)c5C)C=C4C)cc3C.[Cd+2]	5.37	19.1	13.1	> 74.6	4.23	> 29.5	5.73	> 100	2.47	6.95	6.74	26.3	7.4	27.7	0.868	3.2
CN(Cc1cnc2nc(N)nc(N)c2n1)c1ccc(C(=O)NC(CCC(=O)O)C(=O)O)cc1 (centres undefined)	–	> 100	0.0372	> 100	0.629	> 100	> 100	> 100	> 100	> 100	0.0564	> 100	6.04	> 100	0.05	> 100
CC(=O)Oc1cccc2c1C(=O)c1c(OC(C)=O)cc(C)cc1C2=O	–	> 100	–	> 100	–	43.8	–	> 100	–	> 100	–	> 100	–	> 100	–	> 100
C[Se]C(=O)CC1=C2C=C(F)C=CC2/C(=C\c2ccc(S(C)=O)cc2)C1C (centres undefined)	0.432	3.04	0.0141	0.0296	2.31	6.15	0.0886	2.36	2.94	> 34	< 0.0318	> 100	0.0493	1.58	< 0.01	0.526
O=C(NNS(=O)(=O)c1cc(C(F)(F)F)cc(C(F)(F)F)c1)c1cnn(-c2ccc(Cl)cc2)c1C(F)(F)F	18.5	34.7	17	36.5	13.3	33.1	18.4	44.6	17.5	45	31.7	> 100	22.9	61.7	17.2	37.2
O=c1[nH]c(-c2ccc(C(F)(F)F)cc2)nc2c1CSCC2	35.6	> 93.2	> 71.1	> 100	> 100	> 100	45.8	> 100	23.7	98.1	> 76.8	> 100	30	99.8	> 100	> 100
